Measurements as given in PMC8353398 (Frontiers in Pharmacology, 2021).

Legend:
[1] = system: spontaneously hypertensive rats (SHR); experiment: Invasive hemodynamics and echocardiography after 6-week infusion in SHR rats; details: for Diastolic AP / Mean AP / Systolic AP: pressure catheter
Protocol: Male spontaneously hypertensive rats (SHR) and normotensive Wistar-Kyoto (WKY) rats were purchased from Charles River Laboratories (Kingston, ON, Canada) and maintained in a temperature-controlled room with a 12 h light/dark cycle at the animal facility of the Université de Sherbrooke. All animals were randomized with unique identification number into the different groups tested to maintain experimenter blinding. The study included six distinct SHR experimental groups (Table 1). Three groups received a standard rat chow diet containing 0.3% of NaCl (Charles River, ON, Canada) while the other three groups were fed a rat diet containing 8% of NaCl for 6 weeks (Research Diets, NJ, United States). Once a week, urine output and water intake were measured over 24 h using metabolic cages following 3 days of acclimatization. After 6 weeks of different salt intake regimens, the rats were anesthetized with 2% isoflurane for echocardiographic and hemodynamic measurements. Subsequently, blood samples were collected into tubes containing K2-EDTA and centrifuged at 2000 g for 10 min at 4°C before storing the plasma at −80°C. Plasma and urinary concentrations of sodium were determined by a vitros 750 XRC analyser (Johnson-Johnson Clinical Diagnostics; Rochester, NY). OCT-embedded sections of heart (7 µm) were generated and collagen fibers visualized by Masson’s trichrome staining. Immunohistochemistry stained slides were captured by an automated Hamamatsu Nanozoomer 2.0RS slide scanner (Hamamatsu Photonics). Heart and kidneys were also harvested, snap frozen in liquid nitrogen and stored at −80°C for mRNA expression analysis. All animal procedures were approved by our institutional ethical committee (protocol #2017–2115), in compliance with the policies and directives of the Canadian Council on Animal Care and with the ARRIVE guidelines.
Briefly, 2-chlorotrityl chloride resin (2-CTC, 120 mg) was loaded with Fmoc-L-Phe-OH (0.85 mmol/g). Fmoc protecting group was removed by treating the resin with a 20% piperidine solution. The coupling steps were carried out using [hexafluorophosphate of O-(7-azabenzotriazol-1-yl)-1,1,3,3-tetramethyluronium] (HATU, 5 equiv), amino acid (5 equiv) and DIPEA (5 equiv). The final peptide was cleaved from resin using a cocktail of trifluoroacetic acid (TFA)/triisopropylsilane (TIPS)/ethanedithiol (EDT)/water (92.5/2.5/2.5/2.5) and purified by preparative HPLC (ACE5 C18 column 250 × 21.2 mm, 5 μm spherical particle size). […] Finally, peptide was purified by preparative HPLC.
Transthoracic echocardiography was performed under isoflurane anesthesia (2%; […]; Baxter) with the Vevo 3,100 ultrasound apparatus using a MX250 transducer (FUJIFILM VisualSonics, ON, Canada). A short axis view of the left ventricle (LV) was obtained at the level of the papillary muscle and the M-mode tracing was recorded. LV End-Diastolic and End-Systolic Diameters (LVEDD; LVESD) were measured in order to calculate the fractional shortening (FS). Stroke volume was next calculated in order to assess Cardiac Output (CO) and Cardiac Index (CI). Pulse propagation velocity (PPV) was determined by ultrasound measurements of the abdominal aorta using EKV-image acquisition and analyzed with Vevo-Vasc software (FUJIFILM VisualSonics, ON, Canada). For invasive hemodynamic measurements, rats were intubated under isoflurane anesthesia (2%; […]; Baxter, IL, United States) and ventilated (SAR-1000, CWE). The right carotid artery was then cannulated with a pressure catheter (1.9F, Transonic, NY, United States) and advanced into the LV to record end-systolic and end-diastolic pressures.

rACE = experiment: Peptide stability, cleavage assay with purified rat ACE; format: in vitro ADME; details: purified rat ACE (final around 82 nM), 5 µL of 1 mM peptide in about 105 µL; 100 mM Tris-HCl pH 7.4, 100 mM NaCl, 10 µM ZnCl2; 37°C, 300 rpm; sampled 5-120 min; UPLC-MS SIM; repeated 3-5 times
Protocol: (§1) Rat enzymes rACE2 and rNEP were purchased from Sino Biological (Beijing, China) while rACE was obtained from EMD Millipore (Burlington, MA, United States). Enzymes were dissolved in milli-Q water (at 1 μM for rACE2/rNEP and 1.65 μM for rACE), aliquoted and stored at -80°C, as recommended by suppliers. […] Before adding the enzyme, the blank sample (t = 0 min) was prepared by removing 10 μL of this mixture and quenched with 10 μL of EDTA 0.5 M. To initiate the enzymatic reaction, 5 μL of enzyme (1 μM or 1.65 μM) was added to the mixture (final enzyme concentration around 50 nM or 82 nM). This mixture was kept in an incubator at 37°C equipped with an orbital shaker (300 rpm). Ten μL was sampled at 5, 10, 20, 60, and 120 min from this mixture, and quenched with 10 μL EDTA 0.5 M (prepared in milli-Q water and filtered) to inactivate the enzyme. […] First analyses (t = 0 min, t = 120 min) scanned m/z from 300-1200 to evaluate if peptides are cleaved and peptide fragments will be detected. After identifying the m/z of peptides and fragments, peptides were quantified using single ion mode (SIM). […] Angiotensin II was used as reference substrate in the assay with rACE2 and rNEP and angiotensin I was used as reference substrate in the assay with rACE. Experiments were repeated 3-5 times.

rACE2 = target: T1, rACE2 (Rattus norvegicus, UniProt Q5EGZ1); experiment: Peptide stability, cleavage assay with purified rat ACE2; format: in vitro ADME; details: purified rat ACE2 (final around 50 nM), 5 µL of 1 mM peptide in about 105 µL; 100 mM Tris-HCl pH 7.4, 100 mM NaCl, 10 µM ZnCl2; 37°C, 300 rpm; sampled 5-120 min; UPLC-MS SIM; repeated 3-5 times
T1 construct: purchased Sino Biological (Beijing, China)
Protocol: as §1

rNEP = target: T2, rNEP (Rattus norvegicus, UniProt P07861); experiment: Peptide stability, cleavage assay with purified rat neprilysin; format: in vitro ADME; details: purified rat NEP (final around 50 nM), 5 µL of 1 mM peptide in about 105 µL; 100 mM Tris-HCl pH 7.4, 100 mM NaCl, 10 µM ZnCl2; 37°C, 300 rpm; sampled 5-120 min; UPLC-MS SIM; repeated 3-5 times
T2 construct: purchased Sino Biological (Beijing, China)
T2 sequence (P07861 1-750): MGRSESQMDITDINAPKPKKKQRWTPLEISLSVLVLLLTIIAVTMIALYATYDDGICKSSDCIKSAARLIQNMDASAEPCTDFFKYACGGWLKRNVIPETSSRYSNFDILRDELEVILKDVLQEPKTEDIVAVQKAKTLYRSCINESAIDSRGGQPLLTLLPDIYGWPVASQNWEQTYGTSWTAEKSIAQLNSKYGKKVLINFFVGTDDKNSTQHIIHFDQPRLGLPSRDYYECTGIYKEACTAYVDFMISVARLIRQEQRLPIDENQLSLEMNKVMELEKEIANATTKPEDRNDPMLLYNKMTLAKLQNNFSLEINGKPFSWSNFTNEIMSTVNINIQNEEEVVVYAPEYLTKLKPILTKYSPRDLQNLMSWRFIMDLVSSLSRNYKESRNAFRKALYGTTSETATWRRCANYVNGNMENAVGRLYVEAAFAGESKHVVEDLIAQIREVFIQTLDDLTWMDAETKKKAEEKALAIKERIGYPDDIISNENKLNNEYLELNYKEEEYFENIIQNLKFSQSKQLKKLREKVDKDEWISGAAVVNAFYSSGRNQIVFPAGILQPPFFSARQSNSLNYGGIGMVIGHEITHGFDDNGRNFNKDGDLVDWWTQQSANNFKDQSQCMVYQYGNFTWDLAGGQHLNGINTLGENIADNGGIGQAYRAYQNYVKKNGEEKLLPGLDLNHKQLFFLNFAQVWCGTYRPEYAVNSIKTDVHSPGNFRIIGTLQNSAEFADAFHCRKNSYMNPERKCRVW
Protocol: as §1

[2] = system: spontaneously hypertensive rats (SHR); experiment: Quantitative RT-PCR of pro-fibrotic and RAAS genes in heart and kidneys of treated SHR rats; format: in vivo, rat; details: high-salt diet, 10 nmol/kg/hr 6-week infusion, qRT-PCR, Rpl30 reporter
Protocol: Total RNA was extracted from heart and kidneys using RNeasy Mini kits (Qiagen) according to the manufacturer’s protocol. iScript Reverse Transcription Supermix (Bio-Rad) was used to prepare cDNA from 1 µg of total RNA in 20 µL. Real-time PCR was performed on technical duplicates with cDNA diluted 30x in nuclease-free water and using SsoAdvanced™ Universal SYBR® Green Supermix (Bio-Rad) in a Mastercycler® ep RealPlex (Eppendorf). The Ribosomal protein L30 (Rpl30) of heart or kidney was used as a reporter gene and fold changes were obtained using the 2(-ΔΔCt) method ([Livak and Schmittgen, 2001]). Data were then normalized to SHR rats receiving a standard chow diet containing 0.3% of NaCl.

[3] = system: adult male Sprague-Dawley rats; details: cecal-ligation puncture sepsis, 10 nmol/kg/hr, ref Coquerel et al., 2017; cited from earlier work
Excerpt: The final peptide was cleaved fr ...

[4] = SHR, high-salt diet (8% NaCl), 10 nmol/kg/hr s.c. infusion 6 weeks, mean ± SEM, n = 6
[5] = SHR, high-salt diet, 10 nmol/kg/hr s.c. infusion 6 weeks, echocardiography, mean ± SEM, n = 6
[6] = SHR, normal-salt diet (0.3% NaCl), 10 nmol/kg/hr s.c. infusion 6 weeks, mean ± SEM, n = 5
[7] = SHR, normal-salt diet, 10 nmol/kg/hr s.c. infusion 6 weeks, echocardiography, mean ± SEM, n = 5

T1 sequence (Q5EGZ1 18-805): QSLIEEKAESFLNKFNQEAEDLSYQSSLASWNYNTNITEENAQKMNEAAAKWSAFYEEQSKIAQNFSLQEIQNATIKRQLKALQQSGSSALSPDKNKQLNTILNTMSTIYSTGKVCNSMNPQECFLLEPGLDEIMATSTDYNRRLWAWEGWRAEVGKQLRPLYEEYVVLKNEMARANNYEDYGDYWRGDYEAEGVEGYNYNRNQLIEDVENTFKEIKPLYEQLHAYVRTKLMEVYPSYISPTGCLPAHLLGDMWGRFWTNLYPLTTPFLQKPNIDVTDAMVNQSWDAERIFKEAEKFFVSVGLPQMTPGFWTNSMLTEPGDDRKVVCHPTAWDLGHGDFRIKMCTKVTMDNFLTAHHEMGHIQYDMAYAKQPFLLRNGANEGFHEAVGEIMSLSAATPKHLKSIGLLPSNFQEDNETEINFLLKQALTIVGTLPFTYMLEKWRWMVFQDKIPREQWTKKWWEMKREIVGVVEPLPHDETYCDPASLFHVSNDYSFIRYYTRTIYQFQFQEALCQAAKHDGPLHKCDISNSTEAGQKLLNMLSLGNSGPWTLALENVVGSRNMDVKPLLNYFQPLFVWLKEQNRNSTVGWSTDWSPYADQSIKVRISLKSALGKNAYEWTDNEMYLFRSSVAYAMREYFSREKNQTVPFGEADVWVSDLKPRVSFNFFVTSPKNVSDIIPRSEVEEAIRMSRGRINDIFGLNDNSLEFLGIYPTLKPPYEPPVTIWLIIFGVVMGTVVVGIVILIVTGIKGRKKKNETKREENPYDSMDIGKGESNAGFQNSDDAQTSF

Structure (SMILES): CSCC[C@H](NC(=O)[C@@H]1CCCN1C(=O)CNC(=O)[C@H](CCCCN)NC(=O)[C@H](Cc1cnc[nH]1)NC(=O)[C@H](CO)NC(=O)[C@H](CC(C)C)NC(=O)[C@H](CCCNC(=N)N)NC(=O)[C@@H]1CCCN1C(=O)[C@H](CCCNC(=N)N)NC(=O)[C@@H]1CCC(=O)N1)C(=O)N1CCC[C@H]1C(=O)N[C@@H](Cc1ccccc1)C(=O)O [Ape13, [Pyr^1]-Apelin-13]
- Effect on cardiovascular damage caused by hypertension per se ([1]; SHR on normal-salt intake compared to normotensive WKY, chronic treatment 6 weeks): does not prevent or reverse
- Effect on hypertension induced by a high-salt diet ([1]; SHR, high-salt diet (8% NaCl), 10 nmol/kg/hr continuous 6-week infusion): no significant effect
- Weight [1, 4]: 339 ± 10 g
- Diastolic AP [1, 4]: 131 ± 17 mmHg
- Mean AP [1, 4]: 152 ± 19 mmHg
- Systolic AP [1, 4]: 194 ± 23 mmHg
- AWTS (anterior wall thickness during systole) [1, 5]: 2.4 ± 0.1 mm
- FS (fractional shortening) [1, 5]: 37.6 ± 3.3%
- HR (heart rate) [1, 5]: 348 ± 12 bpm
- LVEDD (left ventricular end diastolic diameter) [1, 5]: 7.2 ± 0.1 mm
- LVESD (left ventricular end systolic diameter) [1, 5]: 4.5 ± 0.3 mm
- PWTS (posterior wall thickness during systole) [1, 5]: 2.6 ± 0.1 mm
- Weight [1, 6]: 321 ± 5 g
- Diastolic AP [1, 6]: 125 ± 12 mmHg
- Mean AP [1, 6]: 143 ± 14 mmHg
- Systolic AP [1, 6]: 179 ± 19 mmHg
- APPV (aortic pulse propagation velocity) [1, 7]: 4.5 ± 0.4 m/s
- AWTS (anterior wall thickness during systole) [1, 7]: 2.3 ± 0.1 mm
- FS (fractional shortening) [1, 7]: 39.8 ± 1.1%
- HR (heart rate) [1, 7]: 372 ± 4 bpm
- LVEDD (left ventricular end diastolic diameter) [1, 7]: 6.3 ± 0.4 mm
- LVESD (left ventricular end systolic diameter) [1, 7]: 3.8 ± 0.3 mm
- PWTS (posterior wall thickness during systole) [1, 7]: 2.3 ± 0.1 mm
- Cleavage by ACE within 2 h (rACE): only partially
- Cleavage by ACE2 within 2 h (rACE2): rapidly and fully hydrolyzed
- Cleavage by neprilysin within 2 h (rNEP): rapidly and fully hydrolyzed
- Expression of pro-fibrotic Col1a, Acta1 and Tgfb2 genes in kidneys [2]: only reduced the Tgfb2 mRNA level
- Survival [3]: improved the survival
